Patent US12138256B2, “Treatment of cardiopulmonary disorders” (Bayer Aktiengesellschaft, priority 2021, dated 2024)
Read-outs that look alike come from different tables or passages of the source.

Tests used:
[1] = system: allergen-induced late airway hyperresponsiveness and inflammation in sensitized mice; assay: Chronic asthma model: ovalbumin sensitized BALB/c mice, airway hyperresponsiveness and BAL (C-3.3); format: in vivo, mouse; conditions: for inhibition at 0.1 mg/kg: Mus musculus, dexamethasone 18 h and 1 h before each Ova challenge, comparative example 11 high dose of 100 μg/kg 2 h before
Protocol: The study was conducted to investigate whether inhalative treatment with comparative example 11 has a protective effect on the experimentally allergen-induced late airway hyperresponsiveness and inflammation in sensitized mice. Female BALB/c mice were sensitized and boosted with Ovalbumin (Ova) and aluminium hydroxide adjuvant (day 0. 14 and 21) with the exception of the negative control group receiving NaCl. On day 28 and 29. the animals were challenged with Ova aerosol. On day 30, a hyperresponsiveness test followed by bronchoalveolar lavage (BAL) was performed in all animals of all groups. The treatment groups D (10 μg) and E (100 μg) were treated with comparative example 11 inhalationally 2 h before each Ova challenge. Group A and B, the positive and negative control groups, were treated correspondingly with the vehicle. The Ova-sensitized positive control group A should show the full allergic reaction and, in contrast, the sham-sensitized negative control group B should show no allergic response. As a reference group, the animals of group C were treated inhalative with the corticosteroid dexamethasone but—due to its different mechanism of action—18 h and 1 h before each Ova challenge (on day 27, 28 and 29). On day 30, 24 h after Ova challenge in the late allergic phase, lung function—especially RL—was measured in the orotracheally intubated mice and a test on airway hyperresponsiveness was performed (inhalational methacholine provocation in doubling dose steps). […] These inhibitory effects show the successful therapeutic intervention.

[2] = Protein binding, minipig plasma (fraction unbound); format: in vitro ADME
From the text: The distribution of a test substance between Transil® (phosphatidylcholine lipid bilayers immobilized on silica beads) and plasma is a characteristic feature of any pharmaceutical compound and is dependent on its extent of binding to plasma proteins. By comparing the distribution between Transil® and buffer with the distribution between Transil® and plasma of any species of interest, the unbound fraction in the plasma of the respective animal species can be calculated in vitro. The respective plasma and buffer concentrations were determined via a radioactivity analysis. A detailed description of the method and its validation was published by Schuhmacher et al. (2).

Compound: O=C(O)c1ccc(CCN(CCc2ccccc2OCc2ccc(-c3ccc(C(F)(F)F)cc3)cc2Cl)[C@H]2CCCc3nc(C(=O)O)ccc32)cc1 [comparative example 11, (5S)-5-{[2-(4-carboxyphenyl)ethyl][2-(2-{[3-chloro-4′-(trifluoromethyl)[biphenyl]-4-yl]methoxy}phenyl)ethyl]amino}-5,6,7,8-tetrahydroquinoline-2-carboxylic acid]
- inhibition at 0.1 mg/kg ([1]; read-out: inhibition of the airway hyperresponsiveness (ED100)): 38%
- inhibition at 0.1 mg/kg ([1]; read-out: inhibition of the airway hyperresponsiveness (ED150)): 32%
- inhibition of the eosinophilic influx ([1]; high dose group (100 μg)): 31%
- effect on airway hyperresponsiveness ([1]; low dose (10 μg)): no or only marginal effects
- inhibition of the eosinophilic influx ([1]; low dose group (10 μg)): 19%
- fraction unbound ([2]; Minipig (female) plasma, read-out: Fraction unbound): 0.00348
- fraction unbound ([2]; plasma (Transil beads), minipig plasma, read-out: plasma fu (fraction unbound)): 0.00348
